Reference: US20130052172A1, “METHODS FOR DIAGNOSING AND TREATING CARDIAC DEFECTS” (priority 2011, published 2013)

Assays:
[1] = Blood levels of orally administered antibiotics; assay type: in vivo, rat; conditions: antibiotic given in drinking water; detection limit of assay 1 μM
Description: Dahl S rats are an established model of increased susceptibility to injury from myocardial ischemia/reperfusion (Baker, J. et al. “Resistance to myocardial ischemia in five rat strains: is there a genetic component of cardioprotection?” Am. J. Physiol. Heart Circ. Physiol. 278, H1395-H1400, 2000, Shi, Y. et al. “Increased resistance to myocardial ischemia in the Brown Norway vs. Dahl S rat: role of nitric oxide synthase and Hsp90.” J. Mol. Cell. Cardiol. 38(4):625-635, 2005). […] A minimum treatment time of 48 h with vancomycin was needed to decrease IS. A return to control values for myocardial IS at 72 h following discontinuation of vancomycin was observed (FIG. 5). To determine whether this decrease in IS was a direct effect of antibiotic present in the coronary vasculature, blood levels of vancomycin were measured. The concentration of vancomycin in blood was below detection limits of the assay used (1 μM). […]
Infarct size was measured in rats treated with the antibiotic mixture using the method described in example 3. […] To determine whether the decrease in infarct size was a direct effect of antibiotics present in the coronary vasculature, blood levels of streptomycin, neomycin, bacitracin and polymyxin B were measured. […]

[2] = tested on: metabolites known to be modified by intestinal microbiota; assay: Metabolomic mass spec analysis of blood metabolites; assay type: in vivo, rat; conditions: rats treated for 7 days
Description: In this example, methods for assaying metabolite levels using mass spectrometry are described. Each sample received was accessioned into the Metabolon Laboratory Information Management System (LIMS) and was assigned by the LIMS a unique identifier, which was associated with the original source identifier only. This identifier was used to track all sample handling, tasks, results etc. The samples (and all derived aliquots) were bar-coded and tracked by the LIMS system. All portions of any sample were automatically assigned their own unique identifiers by the LIMS when a new task was created; the relationship of these samples was also tracked. All samples were maintained at −80° C. until processed.
The sample preparation process was carried out using the automated MicroLab STAR® system from Hamilton Company. Recovery standards were added prior to the first step in the extraction process for Quality Control (QC) purposes. […]
The LC/MS portion of the platform was based on a Waters ACQUITY UPLC and a Thermo-Finnigan LTQ mass spectrometer, which consisted of an electrospray ionization (ESI) source and linear ion-trap (LIT) mass analyzer. […] One aliquot was analyzed using acidic positive ion optimized conditions and the other using basic negative ion optimized conditions in two independent injections using separate dedicated columns. […]

Compound: CN[C@H](CC(C)C)C(=O)N[C@H]1C(=O)N[C@@H](CC(N)=O)C(=O)N[C@H]2C(=O)N[C@H]3C(=O)N[C@H](C(=O)N[C@H](C(=O)O)c4cc(O)cc(O)c4-c4cc3ccc4O)[C@H](O)c3ccc(c(Cl)c3)Oc3cc2cc(c3O[C@@H]2O[C@H](CO)[C@@H](O)[C@H](O)[C@H]2O[C@H]2C[C@](C)(N)[C@H](O)[C@H](C)O2)Oc2ccc(cc2Cl)[C@H]1O [vancomycin, Vancomycin]
- concentration in blood [1]: < 1000 nM
- metabolites of tryptophan, phenylalanine and tyrosine in blood [2]: decreased metabolites known to be modified by intestinal microbiota
- phenyllactate in blood [2]: increased
